Measured values as given in patent publication US10189887B2, “Polypeptides and uses thereof for reducing CD95-mediated cell motility” (INSERM (INSTITUT NATIONAL DE LA SANTÉ ET DE LA RECHERCHE …, priority 2014, dated 2019).

Experiments:
[1] = system: CD95-mediated Ca^2+ response; assay: Calcium response to cl-CD95L in activated PBL; type: cell-based, human; details: activated PBL pre-incubated 1 hr, 10 μM peptide, 100 ng/ml cl-CD95L
Method: Cells were loaded with Fura2-AM (1 μM) at resting temperature for 30 min in Hank's Balanced Salt Solution (HBSS). After washing with HBSS, the cells were incubated for 15 min in the absence of Fura2-AM to complete de-esterification of the dye. Cells were placed in a thermostated chamber (37° C.) of an inverted epifluorescence microscope (Olympus IX70) equipped with a ×40, UApo/340-1.15 W water-immersion objective (Olympus), and fluorescence micrograph images were captured at 510 nm and at 12-bit resolution by a fast-scan camera (CoolSNAP fx Monochrome, Photometrics). To minimize UV light exposure, 4×4 binning function was used. Fura2-AM was alternately excited at 340 and 380 nm, and ratios of the resulting images (excitations at 340 and 380 nm and emission filter at 520 nm) were produced at constant intervals (5 s or 10 s according to the stimulus). […] Fluorescent images were pseudocolored using the IMD display mode in MetaFluor and assembled without further manipulation in Photoshop (Adobe). Raw data were acquired with MetaFluor and graphed in Origin (OriginLab). [Ca^2+]i was calculated using the following equation: [Ca^2+]i=Kd(R−Rmin)/(R−Rmax)×Sf2/Sf1, where Kd is the Fura2-AM dissociation constant at the two excitation wavelengths (F340/F380); Rmin is the fluorescence ratio in the presence of minimal calcium, obtained by chelating Ca^2+ with 10 mM EGTA; Rmax is the fluorescence ratio in the presence of excess calcium, obtained by treating cells with 1 μM ionomycin; Sf2 is the fluorescence of the Ca^2+-free form; and Sf1 is the fluorescence of the Ca^2+-bound form of Fura2-AM at excitation wavelengths of 380 and 340 nm, respectively. In some experiments cells were placed in a Ca^2+-free medium consisting of the HBSS described above in which CaCl2 was omitted and 100 μM EGTA was added in order to chelate residual Ca^2+ ions. This medium was added to the cells just before recording to avoid leak of the intracellular calcium stores.
All cells were purchased from ATCC (Molsheim Cedex, France). T leukemic cell lines CEM, H9 and Jurkat were cultured in RPMI supplemented with 8% heat-inactivated FCS (v/v) and 2 mM L-glutamine at 37° C. in a 5% CO2 incubator. CEM-IRC cell expressing a low amount of plasma membrane CD95 was described in (Beneteau et al., 2007; Beneteau et al., 2008). […]
T cells were loaded with Fura-PE3-AM (1 μM) at room temperature for 30 min in Hank's Balanced Salt Solution (HBSS). […] Cells were placed in the temperature controlled chamber (37° C.) of an inverted epifluorescence microscope (Olympus IX70) equipped with an ×40 UApo/340-1.15 W water-immersion objective (Olympus), and fluorescence micrograph images were captured at 510 nm and 12-bit resolution by a fast-scan camera (CoolSNAP fx Monochrome, Photometrics). […]

[2] = system: PLCγ1-dependent Ca^2+ response to TCR stimulation; assay: Ca^2+ response to TCR stimulation (selectivity); type: cell-based; details: TAT-CID pretreatment
Method: T cells were loaded with Fura-PE3-AM (1 μM) at room temperature for 30 min in Hank's Balanced Salt Solution (HBSS). After washing, the cells were incubated for 15 min in the absence of Fura-PE3-AM to complete de-esterification of the dye. Cells were placed in the temperature controlled chamber (37° C.) of an inverted epifluorescence microscope (Olympus IX70) equipped with an ×40 UApo/340-1.15 W water-immersion objective (Olympus), and fluorescence micrograph images were captured at 510 nm and 12-bit resolution by a fast-scan camera (CoolSNAP fx Monochrome, Photometrics). To minimize UV light exposure, a 4×4 binning function was used. Fura-PE3 was alternately excited at 340 and 380 nm, and the ratios of the resulting images (emission filter at 520 nm) were produced at constant intervals (10 seconds). The Fura-PE3 ratio (Fratio 340/380) images were analyzed offline with Universal Imaging software, including Metafluor and Metamorph. Fratio reflects the intracellular Ca^2+ concentration changes. Each experiment was repeated 3 times, and the average of more than 20 single-cell traces was analyzed.

## TAT-CID: cell penetrating peptide linking the 36-amino acid-stretch of CID (CD95 residues 175 to 210) to the HIV-TAT sequence; SEQ ID NO: 6 (RKKRRQRRRKRKEVQKTCRKHRKENQGSHESPTLNPETVAINLSD; TAT-CID)
[1]
  calcium response to cl-CD95L: abrogated the CD95-mediated Ca^2+ response
[1]; listed as TAT CID 175-210
  calcium response to cl-CD95L: greatly reduced the calcium response
[2]
  PLCγ1-dependent Ca^2+ response to TCR stimulation: did not alter this signal
